Experimental data published in patent US11865101B2, “Cromolyn metal complexes as enhanced pharmaceutical formulations and method of preparing the same” (University of Puerto Rico, priority 2020, dated 2024).

Assays:
[1] = at 20° C.; cited from earlier work
[2] = noted by others; above it CS forms supramolecular aggregates; cited from earlier work
[3] = Dissolution profile in PBS (pH 7.40) at 37° C., UV absorbance at 237 nm; format: physicochemical; conditions: PBS pH=7.40, 37° C., 150 rpm, after 1 hr
Experimental: Dissolution profiles—Dissolution profiles were recorded for CS, Cromolyn-Zn, Cromolyn-Mg, and Cromolyn-Ca and quantified by measuring absorbance at 237 nm against a reagent blank containing the buffered media. Dissolution tests were performed in a PBS buffer (pH=7.40) and FaSSGF (pH=1.60) at 37° C. under constant stirring (150 rpm). Absorbance measurements were performed on an Agilent Technologies Cary Series UV-Vis Spectrophotometer, Cary 100 UV-Vis model; using the UV Cary Scan software version v.20.0.470. Stock Solution: A standard stock solution of CS was prepared by dissolving 10 mg in a 100 mL (0.1 mg/mL) volumetric flask and completing to volume with PBS. Dilute solutions were obtained by appropriate dilution of this stock solution. […] PBS was used as the solvent. The absorbance of CS was measured at maximum absorption wavelength (λmax) of 237 nm against a solvent blank (PBS). […] Dissolution profiles were recorded for CS, Cromolyn-Zn, Cromolyn-Mg, and Cromolyn-Ca. […] The absorbance of CS was measured at 237 nm against the solvent blank. […] Absorbance measurements were performed on an Agilent Technologies Cary Series UV-Vis Spectrophotometer, Cary 100 UV-Vis; using the UV Cary Scan software version v.20.0.470. […] The absorbance was measured at the maximum wavelength (λmax=237 nm) for CS as the degradation of the pMCs progressed in PBS over time. […]

[4] = Dissolution / stability in FaSSGF (pH 1.60) at 37° C.; format: physicochemical; conditions: FaSSGF pH=1.60, 37° C.
Experimental: Dissolution profiles—Dissolution profiles were recorded for CS, Cromolyn-Zn, Cromolyn-Mg, and Cromolyn-Ca and quantified by measuring absorbance at 237 nm against a reagent blank containing the buffered media. Dissolution tests were performed in a PBS buffer (pH=7.40) and FaSSGF (pH=1.60) at 37° C. under constant stirring (150 rpm). Absorbance measurements were performed on an Agilent Technologies Cary Series UV-Vis Spectrophotometer, Cary 100 UV-Vis model; using the UV Cary Scan software version v.20.0.470.
The stability of these materials in biologically relevant media was used to understand the ability of the pMCs to sustain blood plasma concentration for CS. A higher blood concentration might allow for longer circulation times and adequate delivery to the target tissues and organs. This is currently a pharmacological disadvantage for oral formulations of CS (<1% bioavailability and low solubility ˜100.0 mg/mL at 20° C.). […] Therefore, no further dissolution studies were carried out in this media.

[5] = orally administered, absorption from the gastrointestinal tract; cited from earlier work

For `O=C(O)c1cc(=O)c2c(OCC(O)COc3cccc4oc(C(=O)O)cc(=O)c34)cccc2o1` [CS, cromolyn sodium], which solubility [1] is on record?
The solubility was ~100.0 mg/mL.

And the critical self-association concentration [2]?
Its critical self-association concentration is 10.00 mg/mL.

What about the “maximum concentration of CS dissolved” value [3] of the same molecule?
The value was ~98%.

And the “dissolution / degradation in FaSSGF” value [4]?
The value was “no detectable dissolution”.

And the bioavailability [5]?
Its bioavailability is < 1%.
